Patent US8796429B2, “Bioactive lipid derivatives, and methods of making and using same” (Lpath, Inc., priority 2006, dated 2014)
“Also recorded” adds a separate entry of the source.

How the values were obtained:
[1] = Direct ELISA, chimeric antibody and mutants binding to S1P; settings: for Binding: antibody 0.1 ug/ml, optical density at 450 nm
Protocol: Microtiter ELISA plates (Costar) were coated overnight with S1P diluted in 1 M Carbonate Buffer (pH 9.5) at 37° C. for 1 hr. Plates were washed with PBS (137 mM NaCl, 2.68 mM KCl, 10.1 mM Na2HPO4, 1.76 mM KH2PO4; pH 7.4) and blocked with PBS/BSA/Tween-20 for 1 hr at room temp or overnight at 4° C. For the primary incubation (1 hr at room temp.), a standard curve using the anti-S1P mAb and the samples to be tested for binding was built using the following set of dilutions: 0.4 μg/mL, 0.2 μg/mL, 0.1 μg/mL, 0.05 μg/mL, 0.0125 μg/mL, and 0 μg/mL, and 100 μl added to each well. Plates were washed and incubated with 100 μl per well of HRP conjugated goat anti-mouse (1:20,000 dilution) (Jackson Immuno Research) or HRP conjugated goat anti-human (H+L) diluted 1:50,000 (Jackson Immuno Research) for 1 hr at room temperature. After washing, the enzymatic reaction was detected with tetramethylbenzidine (Sigma) and stopped by adding 1 M H2SO4. The optical density (OD) was measured at 450 nm using a Thermo Multiskan EX. Raw data were transferred to GraphPad software for analysis.
The chromogenic reaction was measured and reported as Optical density (OD). The concentration of the panel of antibodies was 0.1 ug/ml. No interaction of the second antibody with S1P-coated matrix alone was detected.

human cancer cell lines = test: LPA-induced cancer cell proliferation; format: cell-based; settings: LPA 0.01 mM to 10 mM; SKOV3, OVCAR3, Panc-1, Caki-1, DU-145, A549, HCT-116; also rat RBL-2H3
Protocol: LPA is a potent growth factor supporting cell survival and proliferation by stimulation of Gi, Gq and G12/13 via GPCR-receptors and activation of downstream signaling events. Cell lines were tested for their proliferative response to LPA ([…]). Cell proliferation was assayed by using the cell proliferation assay kit from Chemicon (Temecula Calif.) (Panc-1) and the Cell-Blue titer from Pierce (Caki-1). Each data point is the mean of three independent experiments. […] Even though tumor-derived cells normally have high basal levels of proliferation, LPA appears to further augment proliferation in most tumor cell lines. Anti-LPA mAbs (B7 and B58) were assessed for the ability to inhibit LPA-induced proliferation in selected human cancer cell lines.

SKOV3 cells = test: Taxol-induced apoptosis (caspase activity); format: cell-based, human
Protocol: The ability of LPA to protect ovarian tumor cells against apoptosis when exposed to clinically-relevant levels of the chemotherapeutic agent, paclitaxel (Taxol) was investigated. SKVO3 cells were treated with 1% FBS (S), Taxol ([…]), +/− anti-LPA mAbs for 24 h. […] Apoptosis was assayed by measurement of the caspase activity as recommended by the manufacturer (Promega). As anticipated, LPA protected most of the cancer cell lines tested from taxol-induced cell death. […] Moreover, the anti-LPA antibody was able to remove the protection provided by serum. Serum is estimated to contain about […] LPA. […] Taxol-induced caspase activation was enhanced by the addition of all 3 of the anti-LPA mAbs to the culture medium.

Caki-1 cells = test: LPA-induced IL-8 release, ELISA of supernatants; format: cell-based, human; settings: 18:1 LPA 0.2 mM, cells without mAb, 24 h
Protocol: Three anti-LPA mAbs (B3, B7 and B58) were tested for their abilities to reduce in vitro IL-8 production compared to a non-specific antibody (NS). Caki-1 cells were seeded in 96 well plates and grown to confluency. After overnight serum starvation, cells were treated with 18:1 LPA (0.2 mM) with or without anti-LPA mAb B3, B7, B58 or NS (Non-Specific). After 24 h, cultured supernatants of renal cancer cells (Caki-1), treated with or without LPA and in presence of increasing concentrations of the anti-LPA mAbs B3, B7 and B58, were collected and analyzed for IL-8 levels using a commercially available ELISA kit (Human Quantikine Kit, R&D Systems, Minneapolis, Minn.). […] Similar results were obtained with the other well-known pro-angiogenic factor, VEGF. The inhibition of IL-8 release by the anti-LPA mAbs was also observed in other cancerous cell lines such as the pancreatic cell line Panc-1.

[2] = Competitive ELISA, specificity of anti-S1P mAb (free lipid competes with plate-bound S1P); format: binding; settings: competitor free S1P
Protocol: Screening of serum and cell supernatant for S1P-specific antibodies was by direct ELISA using the thiolated S1P analog described in Example 1 (i.e., compound 10) as the antigen. A standard ELISA was performed, as described below, except that 50 ul of sample (serum or cell supernatant) was diluted with an equal volume of PBS/0.1% Tween-20 (PBST) during the primary incubation. ELISAs were performed in 96-well high binding ELISA plates (Costar) coated with 0.1 μg of chemically-synthesized compound 10 conjugated to BSA in binding buffer (33.6 mM Na2CO3, 100 mM NaHCO3; pH 9.5). The thiolated-S1P-BSA was incubated at 37° C. for 1 hr. at 4° C. overnight in the ELISA plate wells. The plates were then washed four times with PBS (137 mM NaCl, 2.68 mM KCl, 10.14 mM Na2HPO4, 1.76 mM KH2PO4; pH 7.4) and blocked with PBST for 1 hr. at room temperature. For the primary incubation step, 75 uL of the sample (containing the S1P to be measured), was incubated with 25 uL of 0.1 ug/mL anti-S1P mAb diluted in PBST and added to a well of the ELISA plate. […] Optical density of the samples was determined by measurement at 450 nm using an EL-X-800 ELISA plate reader (Bio-Tech).
For cross reactivity, a competitive ELISA was performed as described above, except for the following alterations (FIG. 4). […] Biotin incorporation was determined as per kit protocol and ranged from 7 to 11 biotin molecules per antibody. […]

[3] = Competitive ELISA, specificity of anti-S1P mAb; format: binding
Protocol: Screening of serum and cell supernatant for S1P-specific antibodies was by direct ELISA using the thiolated S1P analog described in Example 1 (i.e., compound 10) as the antigen. A standard ELISA was performed, as described below, except that 50 ul of sample (serum or cell supernatant) was diluted with an equal volume of PBS/0.1% Tween-20 (PBST) during the primary incubation. ELISAs were performed in 96-well high binding ELISA plates (Costar) coated with 0.1 μg of chemically-synthesized compound 10 conjugated to BSA in binding buffer (33.6 mM Na2CO3, 100 mM NaHCO3; pH 9.5). The thiolated-S1P-BSA was incubated at 37° C. for 1 hr. at 4° C. overnight in the ELISA plate wells. The plates were then washed four times with PBS (137 mM NaCl, 2.68 mM KCl, 10.14 mM Na2HPO4, 1.76 mM KH2PO4; pH 7.4) and blocked with PBST for 1 hr. at room temperature. For the primary incubation step, 75 uL of the sample (containing the S1P to be measured), was incubated with 25 uL of 0.1 ug/mL anti-S1P mAb diluted in PBST and added to a well of the ELISA plate. Each sample was performed in triplicate wells. Following a 1 hr. incubation at room temperature, the ELISA plates were washed four times with PBS and incubated with 100 ul per well of 0.1 ug/mL HRP goat anti-mouse secondary (Jackson Immunoresearch) for 1 hr. at room temperature. Plates were then washed four times with PBS and exposed to tetramethylbenzidine (Sigma) for 1-10 minutes. The detection reaction was stopped by the addition of an equal volume of 1M H2SO4. Optical density of the samples was determined by measurement at 450 nm using an EL-X-800 ELISA plate reader (Bio-Tech).
For cross reactivity, a competitive ELISA was performed as described above, except for the following alterations (FIG. 4). The primary incubation consisted of the competitor (S1P, SPH, LPA, etc.) and a biotin-conjugated anti-S1P mAb. Biotinylation of the purified monoclonal antibody was performed using the EZ-Link Sulfo-NHS-Biotinylation kit (Pierce). Biotin incorporation was determined as per kit protocol and ranged from 7 to 11 biotin molecules per antibody. […]

[4] = ELISA with exchanged crosslinker or protein carrier in the laydown material; format: binding
Text: For example, the normal crosslinker SMCC was exchanged for IOA in conjugating the thiolated-S1P to BSA as the laydown material in the ELISA. […] Similarly, KLH was exchanged for BSA as the protein that was complexed with thiolated-S1P as the laydown material.

MetLeu
Binding [1]: 1.6 OD

lysophosphatidic acid [LPA]
proliferative response to LPA (human cancer cell lines): increased proliferation
protection from Taxol-induced apoptosis (SKOV3 cells; Taxol 0.5 mM, 24 h): protected SKVO3 cells from Taxol-induced apoptosis
increase of IL-8 expression (Caki-1 cells): 100%

CysPhe
binding to S1P compared with the chimeric antibody ([1]; ELISA, substitution of Cys 50 in heavy chain CDR2): did not alter the binding
Binding [1]: 2 OD

CC(=O)O[C@H]1C(=O)[C@@]2(C)[C@H]([C@H](OC(=O)c3ccccc3)[C@]3(O)C[C@H](OC(=O)[C@H](O)[C@@H](NC(=O)c4ccccc4)c4ccccc4)C(C)=C1C3(C)C)[C@]1(OC(C)=O)CO[C@@H]1C[C@@H]2O [Taxol, paclitaxel]
caspase-3,7 activation (SKOV3 cells; SKOV3 cells): induced caspase-3,7 activation

B1: anti-S1P mAb: murine IgG1 kappa monoclonal antibody against S1P from hybridoma clone 306D326.26 (ATCC SD-5362) (antibody, listed as Mus musculus, V domains shown)
VH: QAHLQQSDAELVKPGASVKISCKVSGFIFIDHTIHWMKQRPEQGLEWIGCISPRHDITKYNEMFRGKATLTADKSSTTAYIQVNSLTFEDSAVYFCARGGFYGSTIWFDFWGQGTTLTVS
VL: ETTVTQSPASLSMAIGEKVTIRCITTTDIDDDMNWFQQKPGEPPNLLISEGNILRPGVPSRFSSSGYGTDFLFTIENMLSEDVADYYCLQSDNLPFTFGSGTKLEIK
competition for mAb binding to S1P on the plate [2]: can compete for binding
discrimination of thiolated-S1P analog from natural S1P ([3]; competition experiment): unable to distinguish
competition for mAb binding to S1P on the plate ([3]; competitor DH-S1P): can compete for binding
competition for mAb binding to S1P on the plate ([3]; competitor SPC (phosphate linked with choline)): somewhat reduced; also recorded: only slightly competes for binding
binding characteristics, laydown with KLH instead of BSA ([4]; KLH complexed with thiolated-S1P): no significant difference
binding characteristics, laydown with IOA instead of SMCC ([4]; thiolated-S1P conjugated to BSA, compared with BSA-SMCC-thiolated-S1P): nearly identical
